The values that follow come from patent US4377594A, “Derivative of 4-(N-(substituted-benzylidene)amino-methyl cyclohexane-1-carboxylic acid” (Kureha Kagaku Kogyo Kabushiki Kaisha, priority 1980, dated 1983).

Counter-ions that a name gives are not always drawn. Like-named read-outs stand apart in the source and are kept apart here.

Series [1] can be described thus: acute toxicity, peroral administration. Particulars: in vivo, po; peroral, aqueous solution, female JCL-ICR mouse 5 to 6 weeks. An excerpt: (§1) (3) Examination method for acute toxicity
(§2) Acute toxicity was examined by administering perorally an aqueous solution of each Specimen to female JCL-ICR mouse of 5 to 6 weeks after birth.
(§3) ^(3) Median lethal dose (LD50), that is, dose for getting 50% of
(§4) mice to death, in unit of mg per one kilogram of body weight of mouse.

Series [2] has as its system Rabbit platelet rich plasma (PRP); platelet aggregation. The experiment in a line: inhibitory effect on platelet aggregation (induced by sodium arachidonate). The class given is cell-based. Particulars: rabbit PRP 300,000/μl; sodium arachidonate tested at 400 μM; preincubated at 37° C. for 5 min. As to the method:
(1) Examination method for inhibitory effect on platelet aggregation
Rabbit platelet rich plasma (PRP) was used for Aggregation Tests. PRP was prepared by centrifugation of blood collected from the ear vein of Rabbit and diluted into number-concentration 300,000/μl with platelet poor plasma. Platelet aggregation was induced by Sodium Arachidonate and monitored (measured) with a four channel platelet aggregation Tracer PAT-4A (Niko Bioscience Co., Japan). Aggregation Tracer tube contaning 230 μl PRP was preincubated at 37° C. for 5 min with each Specimen.
^(1) The minimum concentration (μM) of each Specimen for inhibitin
completely (100%) the platelet aggregating effect by sodium arachidonate

The subject of series [3] is Rat's polynuclear leukocyte migration. The experiment in a line: inhibitory effect on polynuclear leukocyte migration (Boyden method). It counts as cell-based. The settings on record: read-out: Inhibition rate of polynuclear leukocyte migration. As to the method:
(2) Examination method for inhibitory effect on polynuclear leukocyte migration
Rat's polynuclear leukocyte migration was examined by Boyden method (refer to Japanese J. Clin. Med., 27(9), 172 (1969)) as follows; a mixture of 10 parts by volume of culture filtrate of E. coli and one part by volume of serum was incubated at 37° C. for one hour and diluted into 5-times volume with physiological salt solution, and the mixture obtained was used as an attractant. After preincubating polynuclear leukocyte suspension with each specimen for 10 min, migration of polynuclear leukocytes was examined.
^(2) The average value of inhibition rate (%) of polynuclear leukocyt
migration at each concentration (μM) of each Specimen.

Series [4] has as its system female JCL-ICR mouse. The experiment in a line: acute toxicity, peroral administration. Particulars: mouse, in vivo.
Excerpt: as §1, §2, §3, §4

[5] abbreviates: 1 μM, average value, preincubation 10 min, rat.
Setting [6] is: 10 μM, average value, preincubation 10 min, rat.
The mark [7] stands for this setting: 100 μM, average value, preincubation 10 min, rat.
Where [8] appears, read: 1000 μM, average value, preincubation 10 min, rat.

`CN1CCCN(C(c2ccccc2)c2ccc(Cl)cc2)CC1` (stereo not drawn) [VI]: the LD50 in series [1] stood at 350 mg/kg. Further, in series [2], the “Platelet aggregation ID100 (minimum concentration for inhibiting completely (100%) the platelet aggregating effect by sodium arachidonate)” value is > 1000 µM. For the same molecule, in series [3] (Rattus norvegicus), the inhibition at 1 µM is 15%, the inhibition at 10 µM is 48%, the inhibition at 100 µM came out at 80% and the inhibition at 1000 µM came to 100%.
Molecule `COc1ccc2c(c1)c(CC(=O)O)c(C)n2C(=O)c1ccc(Cl)cc1` [V] showed an LD50 in series [1] of 30 mg/kg. Moreover, in series [3] (Rattus norvegicus), the inhibition at 1 µM is 0%, the inhibition at 10 µM worked out at 0%, the inhibition at 100 µM came to 25% and the inhibition at 1000 µM stood at 79%.
As to `COc1ccccc1C=NC[C@H]1CC[C@H](C(=O)O)CC1` [IV], the LD50 in series [1] was > 3000 mg/kg. The inhibition at 1 µM in series [3] (setting [5]) turned out to be 0%. Moreover, the inhibition at 10 µM in series [3] (setting [6]) was 0%. Moreover, the inhibition at 100 µM in series [3] (setting [7]) turned out to be 27%. Besides, the inhibition at 1000 µM in series [3] (setting [8]) came to 94%.
For `O=C(O)[C@H]1CC[C@H](CN=Cc2ccc(O)cc2O)CC1` [III], in series [1], the LD50 is > 3000 mg/kg. The “Platelet aggregation ID100 (minimum concentration for inhibiting completely (100%) the platelet aggregating effect by sodium arachidonate)” value in series [2] was > 1000 µM. In series [3] (setting [5]), the inhibition at 1 µM turned out to be 0%. The inhibition at 10 µM in series [3] (setting [6]) turned out to be 12%. The inhibition at 100 µM in series [3] (setting [7]) came out at 42%. Also, in series [3] (setting [8]), the inhibition at 1000 µM amounted to 92%.
Consider `O=C(O)[C@H]1CC[C@H](CN=Cc2cccc(O)c2O)CC1` [II], for which the LD50 in series [1] was > 3000 mg/kg. Besides, the inhibition at 1 µM in series [3] (setting [5]) stood at 0%. The inhibition at 10 µM in series [3] (setting [6]) came out at 25%. In series [3] (setting [7]), the inhibition at 100 µM stood at 66%. Further, the inhibition at 1000 µM in series [3] (setting [8]) is 100%.
Turning to `COc1cc(C=NC[C@H]2CC[C@H](C(=O)O)CC2)cc(OC)c1OC` [Example 8 sodium salt, trans-4-[N-(3',4',5'-trimethoxybenzylidene)aminomethyl]cyclohexane-1-carboxylic acid], the “acute toxicity (in words)” value in series [4] is listed as “low acute toxicity”.
For `COc1cc(C=NC[C@H]2CC[C@H](C(=O)O)CC2)ccc1O` [Example 9 sodium salt, trans-4-[N-(3'-methoxy-4'-hydroxybenzylidene)aminomethyl]cyclohexane-1-carboxylic acid], the “acute toxicity (in words)” value in series [4] is reported as “low acute toxicity”.
On to `COc1ccc(C=NC[C@H]2CC[C@H](C(=O)O)CC2)cc1OC` [Example 7 sodium salt, sodium salt of trans-4-[N-(3',4'-dimethoxybenzylidene)aminomethyl]cyclohexane-1-carboxylic acid], for which, in series [4], the “acute toxicity (in words)” value was “low acute toxicity”.
`O=C(O)[C@H]1CC[C@H](CN=Cc2ccccc2O)CC1` [I]: the LD50 in series [1] was ~2000 mg/kg. Moreover, the “Platelet aggregation ID100 (minimum concentration for inhibiting completely (100%) the platelet aggregating effect by sodium arachidonate)” value in series [2] was > 1000 µM. The inhibition at 1 µM in series [3] (setting [5]) turned out to be 0%. Also, the inhibition at 10 µM in series [3] (setting [6]) turned out to be 0%. For the same molecule, the inhibition at 100 µM in series [3] (setting [7]) is 39%. In series [3] (setting [8]), the inhibition at 1000 µM is 93%.

One may read the LD50 as the dose at which mortality reaches 50%. Read a low LD50 as greater toxicity.
